Several values for one entry are separate records, joined by “and”; a condition that tells them apart may be missing. Identical values can stand only once. Like-named read-outs stand apart in the source and are kept apart here. Marks after values point to notes of the source that are not given here. Values belong to the compound of their own block, whether it stands above or below them.
What was measured:
[1] = Kinetic inertness: dissociation of Gd(III)-complexes in 0.01–1.0 M HCl followed by HPLC; format: physicochemical; conditions: for k d at pH = 7.4: dissociation rate calculated at pH 7.4, 25 °C; for k1: proton-assisted dissociation, [H+]≤0.15 M: [Na+]+[H+]=0.15 M
Source text: The kinetic inertness of the Gd(III)‐complexes with the different isomers formed by rac‐L1 and rac‐L2 was characterized by the rates of the dissociation reactions taking place in 0.01–1.0 M HCl solution. The dissociation reactions were followed by measuring the integral values of the Gd(III)‐complexes with the different isomers of rac‐L1 and rac‐L2 ligands with HPLC. The conditions of the HPLC experiments for the kinetic studies of the Gd(III)‐complexes with rac‐L1 and rac‐L2 ligands are summarized in Tables S1 and S2 (Supporting Information), respectively. The samples were kept at 25 °C in a well‐closed vessel. For the HPLC analysis, 100 µL samples were withdrawn from the solutions. The measurements were performed with 0.2 mM solution of Gd(III)‐complexes. The pseudo‐first‐order rate constants (k d) were calculated by fitting the HPLC integral – t data pairs to Equation (1). (1) At=Ar−Ave^−kdt+Av where A r, A v, and A t are the integral values of the reactants, the product, and reaction time t. The temperature was maintained at 25 °C and the ionic strength of the solutions was kept constant at [H^+]≤0.15 M, [HCl]+[NaCl] = 0.15 M. The calculation of the kinetic parameters was performed by the fitting of the absorbance – time and relaxation rate – time data pairs with the Micromath Scientist computer program (version 2.0, Salt Lake City, UT, USA).
The dissociation reactions of Gd(III)-complexes with the different isomers formed by rac-L1 and rac-L2 have been studied by HPLC method (Tables S1 and S2) at 25 °C in 0.01 – 1.0 M HCl solution to guarantee the pseudo-first-order kinetic condition. Area values as a function of time for the dissociation reactions of Gd(III)-complexes formed with the different stereoisomers of rac-L1 obtained at 25 °C in 1.0 M HCl solution are shown in Figure S48.
In the presence of HCl excess, the decomplexation of Gd(III)-complexes can be treated as a pseudo-first-order process and the reaction rate can be expressed by Equation (S9), where kd is a pseudo-first-order rate constant, [GdL]t and [GdL]tot are the concentrations of the GdL species at time t and the total concentration of the complex, respectively.
The rates of the dissociation reactions have been studied at different concentrations of HCl ([HCl]=0.01 – 1.0 M, 25 °C). The kd values obtained for the Gd(III)-complexes with the different isomers of rac-L1 and rac-L2 ligands as a function of [H^+] are shown in Figures S49 and S50.
The obtained kd pseudo-first order rate constants are directly proportional to the concentration of H^+. The increase in the kd values with increasing concentration of H^+ can be interpreted in terms of the proton assisted dissociation of Gd(III)-complexes. […] The proton assisted dissociation of Gd(III)-complexes might be explained by the equilibrium formation of a protonated *Gd(HL) intermediate (Equation (S11)), which dissociates spontaneously (Equation (12)).
where k0, and k1 = kGdHL×K^HGdHL are the rate constants characterizing the spontaneous and proton-assisted dissociation of Gd(III)-complexes. The protonation constant (K^HGdHL) of Gd(DOTA)-like complexes are very small (Gd(DOTA): K^HGdHL =14).^[22] By considering very low protonation constant of Gd(III)-complexes with A, C and D isomers of rac-L1 and A’, C’ and D’ isomers of rac-L2 ligands (K^HGdHL<<10), the denominator of Equation (S14) (1>> K^HGdHL [H^+]) can be neglected, so Equation (S14) can be simplified in the form of Equation (S15). The k0 and k1 values of the Gd(III) complexes with A, C and D isomers of rac-L1, and A’, C’ and D’ isomers of rac-L2 ligands have been calculated by fitting of the kinetic data (Figures S49 and S50) to Equation (S15).
The k1 rate and logK^HGdHL protonation constants characterizing the acid-catalyzed decomplexation of Gd(III)-complexes formed with the different stereoisomers of rac-L1 and rac-L2 are presented and compared with those of [Gd(PCTA)], [Gd(DOTA)]^-, [Gd(HP-DO3A)] and [Gd(BT-DO3A)] in Table S19.

[2] = 0.15 M NaCl, 25 °C; cited from earlier work
[3] = Relaxivity at 21 / 400 MHz and 25 °C in 0.15 M NaCl; format: physicochemical; conditions: 400 MHz
Experimental: The relaxivity values were calculated from the longitudinal relaxation time of H2O protons (T 1) measured at 21 MHz on a Stelar relaxometer connected to a Bruker WP80 NMR electromagnet adapted to variable‐field measurements (15−80 MHz proton Larmor frequency). The temperature of the sample holder was controlled with a thermostatted air stream. The longitudinal relaxation time was measured with the “inversion recovery” method (180° – τ – 90°) by using 12 different τ values with typical 90° pulse width of 6.4 µs, 4 scans. The measurements were performed with 1 mM solution of the Gd(III)‐complexes with rac‐L1, ent‐L1, rac‐L2, and ent‐L2 ligands, so the relaxivity values were given as r 1 = […] where T 1p and T 1w were the relaxation time of bulk water protons in the presence and absence of paramagnetic species, respectively. The variable pH relaxivity measurements of Gd(III)‐complexes with rac‐L1, ent‐L1, rac‐L2, and ent‐L2 ligands could be carried out by direct titration of the samples in the pH range 2.5–9.0 (21 MHz, 25 °C, 0.15 M NaCl). The pH was adjusted by stepwise addition of concentrated NaOH or HCl solution.
The stability constant of Gd(III)‐complexes with rac‐L2 and ent‐L2 ligands were determined by the measurement of the proton relaxation rates (r 1) studying the competition reaction of rac‐L2 and ent‐L2 ligands with AAZTA for Gd(III) ion at pH = 4.0 in 0.15 M NaCl solution. In these experiments, the concentration of Gd^3+, rac‐L2, and ent‐L2 ligands was 2.0 mM, while that of the AAZTA was varied between 1.0 and 6.0 mM (5 × 1.5 mL samples). The pH was adjusted to pH 4.0 by stepwise addition of concentrated NaOH or HCl solutions. The samples were kept at 70 °C for a month and then at 25°C for two months in order to attain the equilibrium (the time needed to reach the equilibria was determined by ^1H‐NMR relaxometry). ^1H‐NMR relaxometric measurement of Gd(III) – rac‐L2 – AAZTA and Gd(III) – ent‐L2 – AAZTA systems were performed with a Bruker Avance III 400 (9.4 T) equipped with BB inverse z gradient probe (5 mm). The longitudinal relaxation time (T 1) was measured with the “inversion recovery” method (180° – τ – 90°) by using 12 different τ values with typical 90° pulse width of 12.0 µs, 4 scans at 298 K. The stability constants of [Gd(rac‐L2)] and [Gd(ent‐L2)] complexes were calculated by considering the protonation constants of AAZTA ligand and the stability constant of [Gd(AAZTA)]^− complex (AAZTA: logK 1 ^H = 10.06, logK 2 ^H = 6.50, logK 3 ^H = 3.77, logK 4 ^H = 2.33, logK 5 ^H = 1.51; [Gd(AAZTA)]^−: logK GdL = 18.93, 0.15 M NaCl, 25 °C).^[ [47] ^] The equilibrium constants were calculated with the program PSEQUAD.^[ [48] ^]

[4] = 0.15 M NaCl, 25 °C; cited from earlier work; remark: listed apart in the source
[5] = 25 °C, cited from earlier work
[6] = 1H NMRD profiles and 17O NMR relaxometry in water; format: physicochemical; conditions: for q: number of coordinated water molecules
Experimental: The magnetic‐field dependence of the longitudinal relaxation rate of water protons (^1H NMRD) were measured in aqueous solution by using a variable field relaxometer equipped with an HTS‐110 3T Metrology Cryogen‐free Superconducting Magnet (Mede, Italy), operating in the overall range of proton Larmor frequencies of 20–120 MHz (0.47–3.00 T). The measurements were performed using the standard inversion recovery sequence (20 experiments, 3 scans) with a 90° pulse width of 3.5 µs. The temperature was controlled with a Stelar VTC‐91 heater airflow. Additional points in the 0.01–10 MHz frequency range were collected on a Fast‐Field Cycling (FFC) Stelar SmarTracer Relaxometer. T 1 values at 500 MHz were collected on a Bruker Avance III NMR spectrometer operating at 11.7 T. The concentration of Gd^3+ in the solutions was determined by using bulk magnetic susceptibility (BMS) shift measurements performed at 11.7 T. For the measurements in the biological fluid, lyophilized plasma matrix (Siemens Healthcare) was added to 1 mL of [Gd(ent‐L2)] (1.0 mM) or Seronorm (Sero) was solubilized in 5 mL [Gd(ent‐L2)] (1.0 mM) solution. ^1H NMRD of the final solution was measured at 310 K.
The spectra were acquired on a Bruker Avance III spectrometer (11.7 T) using a 5 mm probe under temperature control. An aqueous solution of the complexes ([GdL] = 10–15 mM) was enriched to ca. 2.0% of the ^17O isotope (Cambridge Isotope). The transverse relaxation rates (R 2) were measured as a function of temperature in the 278−350 K range. The simultaneous fit of ^1H NMRD and ^17O NMR profiles data was performed using the Micromath Scientist software (version 2.0, Salt Lake City, UT, USA).

SMILES: O=C(O)CCC(C(=O)[O-])N1CCN(C(CCC(=O)O)C(=O)[O-])Cc2cccc(n2)CN(C(CCC(=O)O)C(=O)[O-])CC1.[Gd+3] (racemic) [[Gd(rac-L1)] D (RRS/SSR)]
k d at pH = 7.4 [1]: 4.95×10^-13 s^−1 | k d at pH = 7.4 ([1]; listed as RRS/SSR (D)): 4.95 × 10^−13 s^−1 | k1 ([1]; 25 °C): (1.2±0.1) ×10^-5 M^-1s^-1

SMILES: CC1(N(CC(=O)[O-])CC(=O)[O-])CN(CC(=O)[O-])CCN(CC(=O)[O-])C1.[Gd+3] [[Gd(AAZTA)]^−, reference compound]
logK GdL [2]: 18.93 | r1p [3]: 6.56 ± 0.08 mM⁻¹ s⁻¹

SMILES: O=C(O)CCC(C(=O)[O-])N1CCN(C(CCC(=O)O)C(=O)[O-])Cc2cccc(n2)CN(C(CCC(=O)O)C(=O)[O-])CC1.[Gd+3] (racemic) [[Gd(rac-L1)] A (RSR/SRS)]
k d at pH = 7.4 [1]: 1.84×10^-12 s^−1 | k d at pH = 7.4 ([1]; listed as RSR/SRS (A)): 1.84 × 10^−12 s^−1 | k1 ([1]; 25 °C): (4.6±0.2) ×10^-5 M^-1s^-1

SMILES: CC1(N(CC(=O)O)CC(=O)O)CN(CC(=O)O)CCN(CC(=O)O)C1 [AAZTA]
logK1^H [4]: 10.06 | logK2^H [4]: 6.50 | logK3^H [4]: 3.77 | logK4^H [4]: 2.33 | logK5^H [4]: 1.51

SMILES: O=C([O-])CN1CCN(CC(=O)[O-])Cc2cccc(n2)CN(CC(=O)[O-])CC1.[Eu+3] [[Eu(PCTA)]]
K^HGd(HL) ([5]; 1.0 M KCl): 1.72 M⁻¹ | k d at pH = 7.4 ([5]; pH 7.4, 1.0 M KCl): 2.0 × 10^−11 ([Eu(PCTA)]) s^−1 and 2.0×10^-11 s^−1

τ R ([6]; Table 2): 98 ± 2 ps | τ R ([6]; Table S20, 298 K): 98±2 ps | ER ([6]; fixed in the fitting procedure): 22^b) kJ mol^-1 | q ([6]; fixed in the fitting procedure): 2 | q ([6]; fixed in the fitting procedure, listed as [Gd(rac-L1)]^3-): 2^b) | τ M1 ([6]; residence time of coordinated water 1, 298 K): 103 ± 5 ns | τ M2 ([6]; residence time of coordinated water 2, 298 K): 14 ± 2 ns
SMILES: O=C([O-])CCC(C(=O)[O-])N1CCN(C(CCC(=O)[O-])C(=O)[O-])Cc2cccc(n2)CN(C(CCC(=O)[O-])C(=O)[O-])CC1.[Gd+3] (mixture of isomers) [[Gd(rac‐L1)]^3−] [2,2’,2’’-[3,6,9,15-tetraazabicyclo[9.3.1]pentadeca-1(15),11,13-triene-3,6,9-triyl]tris(4-carboxybutanoate)gadolinium]
^298K r 1 [1.5 T] ([6]; 298 K, 1.5 T, water): 9.4 mM⁻¹ s⁻¹ | r 1 ^310K [1.5 T] ([6]; 310 K, 1.5 T, water): 6.8 mM⁻¹ s⁻¹

K^HGd(HL) ([1]; protonation constant of the *Gd(HL) intermediate, 25 °C): 2.0 ± 0.4 M⁻¹
SMILES: O=C(O)CCC(C(=O)[O-])N1CCN(C(CCC(=O)O)C(=O)[O-])Cc2cccc(n2)CN(C(CCC(=O)O)C(=O)[O-])CC1.[Gd+3] (racemic) [[Gd(rac-L1)] B (RSS/SRR)]
k d at pH = 7.4 [1]: 1.28×10^-11 s^−1 | k d at pH = 7.4 ([1]; listed as RSS/SRR (B)): 1.28 × 10^−11 s^−1 | k1 ([1]; 25 °C): (3.2±0.4) ×10^-4 M^-1s^-1

SMILES: CC(O)CN1CCN(CC(=O)[O-])CCN(CC(=O)[O-])CCN(CC(=O)[O-])CC1.[Gd+3] (centres unmarked) [[Gd(HP-DO3A)]]
k1 ([5]; 0.15 M NaCl): 0.00029 M⁻¹ s⁻¹ | k1 [5]: 0.00026 M⁻¹ s⁻¹ | k d at pH = 7.4 ([5]; pH 7.4, 0.1 M NaCl): 1.0×10^-11 s^−1 | k d at pH = 7.4 ([5]; pH 7.4, 0.15 M NaCl): 1.2×10^-11 s^−1

SMILES: O=C(CC[C@H](C(=O)[O-])N1CCN([C@@H](CCC(=O)NCC(O)CO)C(=O)[O-])CCN([C@H](CCC(=O)NCC(O)CO)C(=O)[O-])Cc2cccc(n2)C1)NCC(O)CO.[Gd+3] (relative stereo) [[Gd(rac-L2)] A’ (RSR/SRS)]
k d at pH = 7.4 [1]: 1.85×10^-12 s^−1 | k d at pH = 7.4 ([1]; listed as RSR/SRS (A′)): 1.85 × 10^−12 s^−1 | k1 ([1]; 25 °C): (4.7±0.1) ×10^-5 M^-1s^-1

Source: article PMC11984905, “Chiral Switch of Gadopiclenol: New Standards in MRI Probes” (Advanced Science, 2025)
